Here are results for 32 molecules from patent US20250084060A1, “PRMT5 INHIBITORS AND METHODS OF TREATMENT” (HANGZHOU UNOGEN BIOTECH, LTD., priority 2022, published 2025).

Structures are written as SMILES.

PRMT5, sequence (O14744 2-637): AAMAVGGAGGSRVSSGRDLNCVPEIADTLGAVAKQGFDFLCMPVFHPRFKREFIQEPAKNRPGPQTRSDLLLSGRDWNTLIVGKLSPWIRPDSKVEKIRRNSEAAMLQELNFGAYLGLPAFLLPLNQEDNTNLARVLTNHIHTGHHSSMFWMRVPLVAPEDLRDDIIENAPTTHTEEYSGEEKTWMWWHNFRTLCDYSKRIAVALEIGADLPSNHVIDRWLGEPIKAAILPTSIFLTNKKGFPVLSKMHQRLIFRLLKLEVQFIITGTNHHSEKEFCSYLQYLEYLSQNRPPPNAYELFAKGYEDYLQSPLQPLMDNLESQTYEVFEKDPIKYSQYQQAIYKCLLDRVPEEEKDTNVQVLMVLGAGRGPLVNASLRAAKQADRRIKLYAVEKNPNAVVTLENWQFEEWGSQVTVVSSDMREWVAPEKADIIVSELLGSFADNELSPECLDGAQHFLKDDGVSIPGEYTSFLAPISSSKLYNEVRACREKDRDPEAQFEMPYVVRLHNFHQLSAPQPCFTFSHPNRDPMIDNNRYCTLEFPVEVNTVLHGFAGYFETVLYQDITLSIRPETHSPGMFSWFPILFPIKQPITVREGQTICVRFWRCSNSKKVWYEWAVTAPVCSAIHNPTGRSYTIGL
PRMT5, sequence (Q9BQA1 2-342 partner): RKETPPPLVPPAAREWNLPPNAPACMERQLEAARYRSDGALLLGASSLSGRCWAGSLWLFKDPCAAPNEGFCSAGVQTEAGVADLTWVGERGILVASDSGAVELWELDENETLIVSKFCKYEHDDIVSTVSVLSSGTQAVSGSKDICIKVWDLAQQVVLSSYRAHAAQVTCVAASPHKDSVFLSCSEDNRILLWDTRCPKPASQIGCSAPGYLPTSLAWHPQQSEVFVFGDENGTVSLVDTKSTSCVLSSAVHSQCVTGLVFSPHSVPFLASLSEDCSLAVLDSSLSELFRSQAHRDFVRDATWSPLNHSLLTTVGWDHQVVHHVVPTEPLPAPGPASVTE

The test concerns the target PRMT5 (Homo sapiens (Human), UniProt O14744). Nature of the test: PRMT5 Chemiluminescent Assay. The format is biochemical. As to conditions: PRMT5 chemiluminescent assay kit (BPS Bioscience), histone H4 peptide substrate, eight-point dose response. On the procedure:
The PRMT5 activity is measured by using “PRMT5 Chemiluminescent Assay Kit” from BPS Bioscience, Catalog Number 52002L as per the instructions of the manufacturer. Briefly, the PRMT5 enzyme is incubated with S-adenosylmethionine in a 96-well plate precoated with histone H4 peptide substrate. Next, a highly specific antibody that recognizes methylated R3 residue of Histone H4 is added followed by a horseradkish peroxidase-labeled (HRP-labeled) secondary antibody. Detection is done by the addition of the HRP substrate to produce chemiluminescence that can be measured quantitatively.
Compounds were serially diluted 3-fold and dosed from 10 uM down to 0 uM. Compounds were tested in duplicates to generate an eight-point dose response for the calculation of their IC50s.
`O=c1c2ccccc2n(Cc2ccc(Cl)cc2)c(=O)n1C[C@H](O)CN1CCc2ccccc2C1` (stereo in doubt) [Compound 96, 1-[(4-chlorophenyl)methyl]-3-[3-(3,4-dihydro-1H-isoquinolin-2-yl)-2-hydroxy-propyl]quinazoline-2,4-dione] displayed an IC50 of 1060 nM.

In turn, `O=c1[nH]c2ccccc2c(=O)n1CC(O)CN1CCc2ccccc2C1` (centres unmarked) [Compound 61, 3-[3-(3,4-dihydro-1H-isoquinolin-2-yl)-2-hydroxy-propyl]-1H-quinazoline-2,4-dione] displayed a half-inhibitory concentration (IC50) of 876 nM.

`O=c1[nH]c2ccccc2c(=O)n1C[C@@H](O)CN1CCc2ccccc2C1` [Compound 62, 3-[(2S)-3-(3,4-dihydro-1H-isoquinolin-2-yl)-2-hydroxy-propyl]-1H-quinazoline-2,4-dione] gave an IC50 of 13400 nM.

For `Cn1c(=O)n(CC(O)CN2CCc3ccccc3C2)c(=O)c2ccccc21` (centres unmarked) [Compound 63, 3-[3-(3,4-dihydro-1H-isoquinolin-2-yl)-2-hydroxy-propyl]-1-methyl-quinazoline-2,4-dione], it took 698 nM to reach half-maximal inhibition (IC50).

`O=c1[nH]c2ccccc2c(=O)n1C[C@H](O)CN1CCc2ccccc2C1` [Compound 64, 3-[(2R)-3-(3,4-dihydro-1H-isoquinolin-2-yl)-2-hydroxy-propyl]-1H-quinazoline-2,4-dione] gave a concentration for half-maximal inhibition (IC50) of 360 nM.

As for `COCCn1c(=O)n(CC(O)CN2CCc3ccccc3C2)c(=O)c2ccccc21` (centres unmarked) [Compound 65, 3-[3-(3,4-dihydro-1H-isoquinolin-2-yl)-2-hydroxy-propyl]-1-(2-methoxyethyl)quinazoline-2,4-dione], it took 518 nM to reach half-maximal inhibition (IC50).

In turn, `O=c1[nH]c2ccc(F)cc2c(=O)n1C[C@H](O)CN1CCc2ccccc2C1` [Compound 66, 3-[(2R)-3-(3,4-dihydro-1H-isoquinolin-2-yl)-2-hydroxy-propyl]-6-fluoro-1H-quinazoline-2,4-dione] yielded a concentration for half-maximal inhibition (IC50) of 176 nM.

Molecule `O=c1[nH]c2ccc(Cl)cc2c(=O)n1C[C@H](O)CN1CCc2ccccc2C1` [Compound 67, 6-chloro-3-[(2R)-3-(3,4-dihydro-1H-isoquinolin-2-yl)-2-hydroxy-propyl]-1H-quinazoline-2,4-dione] yielded a concentration for half-maximal inhibition (IC50) of 216 nM.

For the molecule `O=c1[nH]c2cc(Cl)ccc2c(=O)n1C[C@H](O)CN1CCc2ccccc2C1` [Compound 68, 7-chloro-3-[(2R)-3-(3,4-dihydro-1H-isoquinolin-2-yl)-2-hydroxy-propyl]-1H-quinazoline-2,4-dione], the IC50 was found to be 33 nM.

In turn, `CC(C)Cn1c(=O)n(C[C@H](O)CN2CCc3ccccc3C2)c(=O)c2cc(Cl)ccc21` [Compound 69, 6-chloro-3-[(2R)-3-(3,4-dihydro-1H-isoquinolin-2-yl)-2-hydroxy-propyl]-1-isobutyl-quinazoline-2,4-dione] yielded a half-inhibitory concentration (IC50) of 126 nM.

Regarding `CC(C)Cn1c(=O)n(C[C@H](O)CN2CCc3ccccc3C2)c(=O)c2cc(Br)ccc21` [Compound 71, 6-bromo-3-[(2R)-3-(3,4-dihydro-1H-isoquinolin-2-yl)-2-hydroxy-propyl]-1-isobutyl-quinazoline-2,4-dione], the IC50 worked out at 159 nM.

Consider `CC(C)Cn1c(=O)n(C[C@H](O)CN2CCc3ccccc3C2)c(=O)c2cc(F)ccc21` [Compound 72, 3-[(2R)-3-(3,4-dihydro-1H-isoquinolin-2-yl)-2-hydroxy-propyl]-6-fluoro-1-isobutyl-quinazoline-2,4-dione], for which inhibition was half-maximal at 70 nM (IC50).

`CC(C)Cn1c(=O)n(C[C@H](O)CN2CCc3ccccc3C2)c(=O)c2ccc(Cl)cc21` [Compound 73, 7-chloro-3-[(2R)-3-(3,4-dihydro-1H-isoquinolin-2-yl)-2-hydroxy-propyl]-1-isobutyl-quinazoline-2,4-dione] gave an IC50 of 14 nM.

In the case of `O=c1[nH]c2cc(Br)ccc2c(=O)n1C[C@H](O)CN1CCc2ccccc2C1` [Compound 75, 7-bromo-3-[(2R)-3-(3,4-dihydro-1H-isoquinolin-2-yl)-2-hydroxy-propyl]-1H-quinazoline-2,4-dione], the IC50 is 24 nM.

Turning to `CC(C)Cn1c(=O)n(C[C@H](O)CN2CCc3ccccc3C2)c(=O)c2cc(-c3ccc(F)cc3)ccc21` [Compound 76, 3-[(2R)-3-(3,4-dihydro-1H-isoquinolin-2-yl)-2-hydroxy-propyl]-6-(4-fluorophenyl)-1-isobutyl-quinazoline-2,4-dione], the IC50 came to 57 nM.

As for `O=c1c2cc(F)ccc2n(CC2CC2)c(=O)n1C[C@H](O)CN1CCc2ccccc2C1` [Compound 77, 1-(cyclopropylmethyl)-3-[(2R)-3-(3,4-dihydro-1H-isoquinolin-2-yl)-2-hydroxy-propyl]-6-fluoro-quinazoline-2,4-dione], half-maximal inhibition (IC50) was put at 63 nM.

Turning to `COc1ccc2[nH]c(=O)n(C[C@H](O)CN3CCc4ccccc4C3)c(=O)c2c1` [Compound 81, 3-[(2R)-3-(3,4-dihydro-1H-isoquinolin-2-yl)-2-hydroxy-propyl]-6-methoxy-1H-quinazoline-2,4-dione], 159 nM corresponded to half-maximal inhibition (IC50).

Take `COc1ccc2c(=O)n(C[C@H](O)CN3CCc4ccccc4C3)c(=O)[nH]c2c1` [Compound 82, 3-[(2R)-3-(3,4-dihydro-1H-isoquinolin-2-yl)-2-hydroxy-propyl]-7-methoxy-1H-quinazoline-2,4-dione]: it took 66 nM to reach half-maximal inhibition (IC50).

The molecule `O=c1[nH]c2ccc(O)cc2c(=O)n1C[C@H](O)CN1CCc2ccccc2C1` [Compound 83, 3-[(2R)-3-(3,4-dihydro-1H-isoquinolin-2-yl)-2-hydroxy-propyl]-6-hydroxy-1H-quinazoline-2,4-dione] came in with an IC50 of 840 nM.

`COc1ccc2c(=O)n(C[C@H](O)CN3CCc4ccccc4C3)c(=O)n(CC3CC3)c2c1` [Compound 84, 1-(cyclopropylmethyl)-3-[(2R)-3-(3,4-dihydro-1H-isoquinolin-2-yl)-2-hydroxy-propyl]-7-methoxy-quinazoline-2,4-dione] yielded an IC50 of 35 nM.

The molecule `Cc1cccc2c1c(=O)n(C[C@H](O)CN1CCc3ccccc3C1)c(=O)n2CC1CC1` [Compound 85, 1-(cyclopropylmethyl)-3-[(2R)-3-(3,4-dihydro-1H-isoquinolin-2-yl)-2-hydroxy-propyl]-5-methyl-quinazoline-2,4-dione] displayed an IC50 of 29 nM.

`O=c1c2ccc(-c3cccnc3)cc2n(CC2CC2)c(=O)n1C[C@H](O)CN1CCc2ccccc2C1` [Compound 86, 1-(cyclopropylmethyl)-3-[(2R)-3-(3,4-dihydro-1H-isoquinolin-2-yl)-2-hydroxy-propyl]-7-(3-pyridyl)quinazoline-2,4-dione] had a 50% inhibitory concentration (IC50) of 35 nM.

`COc1ccc2c(c1)c(=O)n(C[C@H](O)CN1CCc3ccccc3C1)c(=O)n2CC1CC1` [Compound 87, 1-(cyclopropylmethyl)-3-[(2R)-3-(3,4-dihydro-1H-isoquinolin-2-yl)-2-hydroxy-propyl]-6-methoxy-quinazoline-2,4-dione] yielded a concentration for half-maximal inhibition (IC50) of 58 nM.

In turn, `Cc1ccc2c(c1)c(=O)n(C[C@H](O)CN1CCc3ccccc3C1)c(=O)n2CC1CC1` [Compound 88, 1-(cyclopropylmethyl)-3-[(2R)-3-(3,4-dihydro-1H-isoquinolin-2-yl)-2-hydroxy-propyl]-6-methyl-quinazoline-2,4-dione] had a half-maximal inhibitory concentration (IC50) of 21 nM.

On to `O=c1c2c(F)cccc2n(CC2CC2)c(=O)n1C[C@H](O)CN1CCc2ccccc2C1` [Compound 89, 1-(cyclopropylmethyl)-3-[(2R)-3-(3,4-dihydro-1H-isoquinolin-2-yl)-2-hydroxy-propyl]-5-fluoro-quinazoline-2,4-dione], for which the concentration for half-maximal inhibition (IC50) came to 41 nM.

Regarding `O=c1c2ccccc2n(CC2CC2(F)F)c(=O)n1C[C@H](O)CN1CCc2ccccc2C1` (stereo partly drawn) [Compound 90, 1-[(2,2-difluorocyclopropyl)methyl]-3-[(2R)-3-(3,4-dihydro-1H-isoquinolin-2-yl)-2-hydroxy-propyl]quinazoline-2,4-dione], the half-inhibitory concentration (IC50) worked out at 121 nM.

In turn, `O=c1c2ccccc2n(CCCC(F)(F)F)c(=O)n1C[C@H](O)CN1CCc2ccccc2C1` [Compound 93, 3-[(2R)-3-(3,4-dihydro-1H-isoquinolin-2-yl)-2-hydroxy-propyl]-1-(4,4,4-trifluorobutyl)quinazoline-2,4-dione] showed a half-maximal inhibitory concentration (IC50) of 122 nM.

`O=c1c2ccccc2n(CC2CC(F)(F)C2)c(=O)n1C[C@H](O)CN1CCc2ccccc2C1` [Compound 95, 1-[(3,3-difluorocyclobutyl)methyl]-3-[(2R)-3-(3,4-dihydro-1H-isoquinolin-2-yl)-2-hydroxy-propyl]quinazoline-2,4-dione] gave an IC50 of 164 nM.

Consider `COc1ccc(Cn2c(=O)c3ccccc3n(CC(O)CN3CCc4ccccc4C3)c2=O)cc1` (centres unmarked) [Compound 97, 1-[3-(3,4-dihydro-1H-isoquinolin-2-yl)-2-hydroxy-propyl]-3-[(4-methoxyphenyl)methyl]quinazoline-2,4-dione], for which the half-inhibitory concentration (IC50) stood at 9410 nM.

`CC(C)Cn1c(=O)n(CC(O)CN2CCc3ccccc3C2)c(=O)c2ccccc21` (centres unmarked) [Compound 98, 3-[3-(3,4-dihydro-1H-isoquinolin-2-yl)-2-hydroxy-propyl]-1-isobutyl-quinazoline-2,4-dione] returned an IC50 of 178 nM.

`N#Cc1ccc(Cn2c(=O)n(CC(O)CN3CCc4ccccc4C3)c(=O)c3ccccc32)cc1` (centres unmarked) [Compound 100, 4-[[3-[3-(3,4-dihydro-1H-isoquinolin-2-yl)-2-hydroxy-propyl]-2,4-dioxo-quinazolin-1-yl]methyl]benzonitrile] showed a concentration for half-maximal inhibition (IC50) of 779 nM.

For the molecule `CC(C)Cn1c(=O)n(C[C@@H](O)CN2CCc3ccccc3C2)c(=O)c2ccccc21` [Compound 101, 3-[(2S)-3-(3,4-dihydro-1H-isoquinolin-2-yl)-2-hydroxy-propyl]-1-isobutyl-quinazoline-2,4-dione], the 50% inhibitory concentration (IC50) worked out at 4490 nM.
